Test results: EP0261503B1, “Heterocyclic amido derivatives of substituted benzoic acids and therapeutic compositions which contain them as active principle” (VALEAS S.p.A. INDUSTRIA CHIMICA E FARMACEUTICA, priority 1986, dated 1988)

Experiments:
[1] = tested on: passive cutaneous anaphylaxis; assay: passive cutaneous anaphylaxis test (PCA) in the rat, intraperitoneal administration; format: in vivo; details: ip, PCA test on the rat, 15 minutes before antigen challenge, versus control group
Method: The products of general formula (I) listed in Table 1 were subjected to a first pharmacological screening to evaluate their activity after oral administration in the passive cutaneous anaphylaxis test (PCA) in the rat in accordance with Goose J. and Blair A.M.J.N. (Immunology, 16, 749-760, 1969). Serum, obtained from rats actively sensitized with ovalbumin and suitably diluted, was injected intradermally into the shave back of male Sprague Dawley rats, and after 24 hours these were treated intravenously with a solution of ovalbumin and Evans blue. Thirty minutes after the antigen challenge, the animals were sacrificed and the diameter and intensity of the blue halo which has formed in the intradermal injection site was measured. Some of the compounds according to the invention were subjected to a further passive cutaneous anaphylaxis test evaluation to determine their efficiency after intraperitoneal administration at a dose of 100 mg/kg, fifteen minutes before the challenge. […]

[2] = tested on: passive cutaneous anaphylaxis; assay: passive cutaneous anaphylaxis test (PCA) in the rat, oral administration; format: in vivo; details: PCA test on the rat, oral administration 30 minutes before antigen challenge; for Activity: relative to Tranilast = 1
Method: The products of general formula (I) listed in Table 1 were subjected to a first pharmacological screening to evaluate their activity after oral administration in the passive cutaneous anaphylaxis test (PCA) in the rat in accordance with Goose J. and Blair A.M.J.N. (Immunology, 16, 749-760, 1969). Serum, obtained from rats actively sensitized with ovalbumin and suitably diluted, was injected intradermally into the shave back of male Sprague Dawley rats, and after 24 hours these were treated intravenously with a solution of ovalbumin and Evans blue. Thirty minutes after the antigen challenge, the animals were sacrificed and the diameter and intensity of the blue halo which has formed in the intradermal injection site was measured. The compounds according to the invention, and also tranilast (N-3ʹ, 4ʹ-dimethoxycinnamoyl) anthranilic acid) used as reference standard, were dissolved-suspended in suitable solvents (carboxymethylcellulose, gum arabic, DMSO etc.) and administered orally thirty minutes before the antigen challenge. Table 2 lists the ED₅₀ values and the relative confidence limits at p = 0.05.

SMILES | inhibition at 100 mg/kg [1] [%] | Activity [2] | ED₅₀ [2] [mmoles/kg/os]
CCOC(=O)Cc1csc(NC(=O)c2cc(C)ccc2N)n1 [Compound 37] | 88.4 | 213.3 | 
CCOC(=O)c1cc(C)sc1-n1c(=O)[nH]c2c(OC)cccc2c1=O [Compound 32, 8-METHOXY-3-[(3-ETHOXY CARBONYL-5-METHYL)-THIENYL]-2,4 QUINAZOLONE] | 52.7 | 4.0 | 0.08
COc1ccc(C=CC(=O)Nc2ccccc2C(=O)O)cc1OC [Tranilast, N-(3ʹ,4ʹ-dimethoxycinnamoyl) anthranilic acid, reference compound] |  | 1 | 0.32
CCOC(=O)c1cc(C)sc1NC(=O)c1cccc(OC)c1[N+](=O)[O-] [Compound 1, 3-thiophene carboxylic acid-2-[(2-nitro-3-methoxybenzoyl)amino]-5-methyl ethyl ester] | 59.4 | 1.5 | 0.21
CCOC(=O)c1cc(C)sc1NC(=O)c1cccc(OC)c1NC(C)=O [Compound 15, 3-THIOPHENE CARBOXYLIC ACID, 2-[(2-ACETYL AMINO-3-METHOXY BENZOYL)AMINO]-5-METHYL, ETHYL ESTER] |  | 24.6 | 0.013
CCOC(=O)C(O)c1csc(-n2c(=O)[nH]c3c(OC)cccc3c2=O)n1 (stereo not drawn) [Compound 36, 8-METHOXY-3-[[5-(α-HYDROXY ETHYL ACETATE)]-THIAZENYL]-2,4 QUINAZOLONE] | 40.7 | 5.9 | 0.054
CCOC(=O)c1cc(C)sc1NC(=O)c1cccc(OC)c1N [Compound 7, 3-THIOPHENE CARBOXYLIC ACID, 2[(2-AMINO-3-METHOXY BENZOYL)AMINO]-5-METHYL-ETHYL ESTER] | 31.9 | 450.7 | 
COc1cccc(C(=O)Nc2sc(C)cc2C(=O)O)c1N [Compound 16, 3-THIOPHENE CARBOXYLIC ACID, 2-[(2-AMINO-3-METHOXY BENZOYL)AMINO]-5-METHYL] |  | 41.0 | 
CCOC(=O)C(=O)Nc1c(OC)cccc1C(=O)Nc1sc(C)cc1C(=O)OCC [Compound 18, 3-THIOPHENE CARBOXYLIC ACID, 2-[[2-AMINO(OXOACETIC ACID ETHYL ESTER)-3-METHOXY BENZOYL] AMINO]-5-METHYL, ETHYL ESTER] |  | 114.3 | 
CCOC(=O)Cc1csc(NC(=O)c2cccc(OC)c2N)n1 [Compound 25, 4-THIAZOLE ACETIC ACID, 2-[(2-AMINO-3-METHOXY BENZOYL)AMINO], ETHYL ESTER] | 43.1 | 64.0 | 
